Data taken from patent US5580871A, “4-Heteroaryl- 1,4-dihydropyridine compounds with calcium agonist and alpha1 -antagonist activity” (The Dupont Merck Pharmaceutical Company, priority 1995, dated 1996).

How the values were obtained:
[1] = target: T1, Ca^2+ channel (Rattus norvegicus, UniProt P22002); assay: [3H]-Nitrendipine binding assay (affinity for calcium channels); details: rat cardiac microsomes; 0.5 nM [3H]-nitrendipine, 60 min, 25° C.
T1 construct: rat cardiac microsomes (source of Ca^2+ channels); from tissue; host or cells: rat cardiac microsomes
T1 sequence (P22002 whole entry, other chains not shown): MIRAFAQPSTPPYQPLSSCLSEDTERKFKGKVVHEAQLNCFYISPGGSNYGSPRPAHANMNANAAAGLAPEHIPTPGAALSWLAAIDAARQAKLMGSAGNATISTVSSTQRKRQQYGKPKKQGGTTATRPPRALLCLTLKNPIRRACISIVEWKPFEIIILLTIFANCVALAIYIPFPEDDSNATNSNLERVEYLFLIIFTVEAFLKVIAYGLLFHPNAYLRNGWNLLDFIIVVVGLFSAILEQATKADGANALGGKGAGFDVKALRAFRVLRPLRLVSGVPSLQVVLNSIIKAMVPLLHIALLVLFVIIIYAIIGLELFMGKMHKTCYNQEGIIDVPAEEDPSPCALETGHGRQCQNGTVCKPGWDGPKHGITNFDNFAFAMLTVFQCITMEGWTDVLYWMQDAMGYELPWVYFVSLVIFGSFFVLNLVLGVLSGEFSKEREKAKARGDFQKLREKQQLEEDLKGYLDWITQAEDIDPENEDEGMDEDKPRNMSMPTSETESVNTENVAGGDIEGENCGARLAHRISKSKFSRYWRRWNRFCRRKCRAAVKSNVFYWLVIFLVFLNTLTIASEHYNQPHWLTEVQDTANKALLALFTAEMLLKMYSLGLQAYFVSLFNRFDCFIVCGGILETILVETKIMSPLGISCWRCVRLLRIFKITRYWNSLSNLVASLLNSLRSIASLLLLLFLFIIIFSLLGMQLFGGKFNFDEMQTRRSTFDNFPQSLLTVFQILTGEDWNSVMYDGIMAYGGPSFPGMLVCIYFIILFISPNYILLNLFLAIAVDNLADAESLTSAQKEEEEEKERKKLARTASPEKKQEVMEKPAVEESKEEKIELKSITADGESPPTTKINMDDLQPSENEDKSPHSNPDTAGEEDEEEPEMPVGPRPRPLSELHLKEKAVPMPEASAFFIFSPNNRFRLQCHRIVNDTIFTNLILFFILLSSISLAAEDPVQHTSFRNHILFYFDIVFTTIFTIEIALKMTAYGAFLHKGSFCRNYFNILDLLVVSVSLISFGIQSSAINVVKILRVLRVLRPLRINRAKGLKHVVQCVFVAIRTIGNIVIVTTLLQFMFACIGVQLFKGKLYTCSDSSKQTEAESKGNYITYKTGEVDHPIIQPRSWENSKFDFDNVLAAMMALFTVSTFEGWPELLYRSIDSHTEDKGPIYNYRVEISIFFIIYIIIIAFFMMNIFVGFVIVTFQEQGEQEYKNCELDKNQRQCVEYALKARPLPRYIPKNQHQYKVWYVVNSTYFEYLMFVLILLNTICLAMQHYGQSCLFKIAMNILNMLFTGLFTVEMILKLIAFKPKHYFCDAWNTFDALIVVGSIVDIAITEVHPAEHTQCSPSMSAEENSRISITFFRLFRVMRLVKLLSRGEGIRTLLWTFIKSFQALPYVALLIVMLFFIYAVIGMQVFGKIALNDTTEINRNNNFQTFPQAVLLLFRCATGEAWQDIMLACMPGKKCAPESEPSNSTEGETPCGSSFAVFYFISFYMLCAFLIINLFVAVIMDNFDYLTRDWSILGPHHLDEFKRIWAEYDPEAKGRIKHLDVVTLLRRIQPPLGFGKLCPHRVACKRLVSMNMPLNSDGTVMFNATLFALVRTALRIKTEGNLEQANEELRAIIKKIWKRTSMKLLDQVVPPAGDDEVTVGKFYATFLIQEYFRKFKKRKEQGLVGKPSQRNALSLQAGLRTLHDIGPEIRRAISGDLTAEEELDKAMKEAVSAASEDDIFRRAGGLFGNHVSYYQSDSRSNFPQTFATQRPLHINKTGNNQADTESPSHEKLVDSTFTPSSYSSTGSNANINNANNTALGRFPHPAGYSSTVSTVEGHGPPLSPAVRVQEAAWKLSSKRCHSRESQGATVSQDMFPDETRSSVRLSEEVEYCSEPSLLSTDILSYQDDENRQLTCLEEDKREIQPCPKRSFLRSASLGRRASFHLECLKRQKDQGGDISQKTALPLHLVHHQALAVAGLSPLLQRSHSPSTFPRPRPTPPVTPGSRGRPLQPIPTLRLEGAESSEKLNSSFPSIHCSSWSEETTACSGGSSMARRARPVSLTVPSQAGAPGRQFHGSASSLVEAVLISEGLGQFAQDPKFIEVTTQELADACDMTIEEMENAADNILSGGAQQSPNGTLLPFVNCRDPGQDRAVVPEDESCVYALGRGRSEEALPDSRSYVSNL
T1 sequence (P54290 25-944 partner limits assumed, other chains not shown): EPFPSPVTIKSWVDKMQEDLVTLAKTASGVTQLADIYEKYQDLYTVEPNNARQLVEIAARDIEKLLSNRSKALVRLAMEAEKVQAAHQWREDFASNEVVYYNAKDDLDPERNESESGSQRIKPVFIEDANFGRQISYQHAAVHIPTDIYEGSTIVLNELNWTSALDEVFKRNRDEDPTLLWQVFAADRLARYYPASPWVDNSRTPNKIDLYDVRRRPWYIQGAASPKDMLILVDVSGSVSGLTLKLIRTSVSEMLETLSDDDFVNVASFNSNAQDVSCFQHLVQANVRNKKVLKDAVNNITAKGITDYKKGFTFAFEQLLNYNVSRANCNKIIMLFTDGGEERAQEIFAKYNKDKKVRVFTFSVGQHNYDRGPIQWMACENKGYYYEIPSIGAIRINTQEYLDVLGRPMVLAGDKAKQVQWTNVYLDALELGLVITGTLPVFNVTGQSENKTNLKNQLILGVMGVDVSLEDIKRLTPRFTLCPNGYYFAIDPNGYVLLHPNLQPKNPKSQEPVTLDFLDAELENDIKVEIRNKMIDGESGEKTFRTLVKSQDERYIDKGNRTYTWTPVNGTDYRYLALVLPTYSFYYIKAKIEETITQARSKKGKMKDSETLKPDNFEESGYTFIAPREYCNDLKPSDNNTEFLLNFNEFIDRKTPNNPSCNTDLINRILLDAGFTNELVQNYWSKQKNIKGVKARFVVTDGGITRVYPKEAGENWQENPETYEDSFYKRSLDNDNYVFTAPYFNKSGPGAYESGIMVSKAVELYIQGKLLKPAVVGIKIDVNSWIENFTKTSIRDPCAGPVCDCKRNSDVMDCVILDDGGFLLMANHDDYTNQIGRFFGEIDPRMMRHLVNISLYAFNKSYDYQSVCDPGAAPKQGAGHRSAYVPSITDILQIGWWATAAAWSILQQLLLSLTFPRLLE
T1 sequence (P54290 945-1091 partner limits assumed, other chains not shown): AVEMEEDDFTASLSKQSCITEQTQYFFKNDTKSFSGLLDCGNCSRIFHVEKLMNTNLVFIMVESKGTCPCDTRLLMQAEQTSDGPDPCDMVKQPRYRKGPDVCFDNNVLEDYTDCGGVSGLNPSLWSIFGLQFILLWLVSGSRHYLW
Procedure: [^3 H]-Nitrendipine binding assay was carried out according to the method described by G. T. Bolger, et al., Biochem. Biophys. Res. Comm., 104, 1604-1609, (1982). The reaction mixture contained rat cardiac microsomes (source of Ca^2+ channels), 0.5 nM [^3 H]-nitrendipine with or without potential displacer in Tris buffer. The mixture was incubated for 60 minutes at 25° C. and subsequently terminated by rapid filtration through a glass fiber-filter. Membrane-bound [^3 H]-nitrendipine trapped in the filter was quantitated by scintillation counting. The inhibitory concentration (IC50) of potential displacer which gives 50% displacement of the total specifically bound [^3 H]-nitrendipine is presented as a measure of the affinity of such compound for the Ca^2+ channel.

[2] = system: guinea pig left atria; assay: Positive inotropic effect in guinea pig left atria; details: Cavia porcellus; for EC50: concentration that increases developed tension (DT) by 50% above the control DT, left atria paced at 2 Hz, 37° C.; for Emax: ratio of the maximum effect of the test compound to that of Bay K8644, read-out: Intrinsic Activity
Procedure: Guinea pigs are killed by cervical dislocation. The left atria are removed and mounted at 1 gm resting tension in tissue baths containing oxygenated Krebs bicarbonate solution which is kept at 37° C. The left atria are electrically paced at 2 Hz with square wave pulses of 1 msec duration. The voltage is set at 1.5×threshold level.
After a one hour equilibration period, control values for developed tension (DT, gm) are recorded. Test compounds are then added to the baths, in a cumulative manner to a maximum concentration of 10^-4, to obtain a concentration-response curve. Treatment values of DT are obtained after the drug effect has reached a plateau and the exposure time for each concentration is 5-8 minutes. Percent change of the treatment value from the control value is calculated at each concentration of the test compound.

[3] = target: alpha1-adrenoceptor; assay: [3H]-Prazosin binding assay (affinity for alpha1-adrenoceptors); details: partially purified rat brain membranes; 0.2 nM [3H]-prazosin, 60 min, 25° C.
Procedure: The [^3 H]-prazosin binding assay was carried out according to the method described by Timmermans, P. B. M. W. M., Schoop, A. M. C., and Van Zwieten, P. A., Biochem. Pharmacol., 31, 899-905, (1982). The reaction mixture contained partially purified rat brain membranes (source of alpha1 -adrenoceptors), 0.2 nM [^3 H]-prazosin with or without potential displacer in Tris buffer. The mixture was incubated for 60 minutes at 25° C. and subsequently terminated by rapid filtration through glass fiber-filter. Receptor-bound [^3 H]-prazosin trapped in the filter was quantitated by scintillation counting. The inhibitory concentration (IC50) of potential displacer which gives 50% displacement of the total specifically bound [^3 H]-prazosin is presented as a measure of the affinity of such compound for the alpha1 -adrenoceptor.

Compound	IC50 [1]	EC50 [2]	Emax [2]	IC50 [3]
COC(=O)C1=C(C)NC(C)=C([N+](=O)[O-])C1c1ccoc1CCCCCN1CCN(c2ccccc2OC)CC1 (stereo not drawn) [Example 1, 1,4-Dihydro-4-(2-{5-[4-(2-methoxyphenyl)-1-piperazinyl]pentyl}-3-furanyl)-2,6-dimethyl-5-nitro-3-pyridinecarboxylic acid, methyl ester]	600 nM	5000 nM	188%	130 nM
COC(=O)C1=C(C)NC(C)=C([N+](=O)[O-])C1c1ccoc1CCCCCN1CCN(C(=O)c2ccco2)CC1 (stereo not drawn) [Example 2]	1500 nM	96000 nM	144%	1900 nM
COC(=O)C1=C(C)NC(C)=C([N+](=O)[O-])C1c1ccccc1S(=O)(=O)CCCCN1CCN(c2ccccc2OC)CC1 (stereo not drawn) [Example 3]	240 nM	1000 nM	89%	63 nM
COC(=O)C1=C(C)NC(C)=C([N+](=O)[O-])C1c1ccccc1[S+]([O-])CCCCN1CCN(c2ccccc2OC)CC1 (stereo not drawn) [Example 4]	890 nM	–	43%	20 nM
COC(=O)C1=C(C)NC(C)=C([N+](=O)[O-])C1c1ccccc1OCCCCCN1CCN(C(=O)c2ccco2)CC1 (stereo not drawn) [Example 5]	680 nM	3000 nM	269%	2200 nM
COC(=O)C1=C(C)NC(C)=C([N+](=O)[O-])C1c1ccccc1OCCCCCN1CCC(c2ccccc2)CC1 (stereo not drawn) [Example 6]	360 nM	2000 nM	207%	900 nM
COC(=O)C1=C(C)NC(C)=C([N+](=O)[O-])C1c1ccccc1OCCCCCN1CCN(c2ccc(Cl)nn2)CC1 (stereo not drawn) [Example 7]	650 nM	12000 nM	149%	1900 nM
COC(=O)C1=C(C)NC(C)=C([N+](=O)[O-])C1c1ccccc1OCCCCCN1CCN(c2ccc(OC(C)C)nn2)CC1 (stereo not drawn) [Example 8]	580 nM	15000 nM	113%	15000 nM
COC(=O)C1=C(C)NC(C)=C([N+](=O)[O-])C1c1ccccc1OCCCCCN1CCN(C(=O)C2COc3ccccc3O2)CC1 (stereo not drawn) [Example 9]	950 nM	53000 nM	62%	5200 nM
COC(=O)C1=C(C)NC(C)=C([N+](=O)[O-])C1c1ccccc1OCCCCCN1CCN(c2cnccn2)CC1 (stereo not drawn) [Example 10]	1200 nM	2800 nM	55%	7200 nM
CCCOc1cc(N2CCN(CCCCCOc3ccccc3C3C(C(=O)OC)=C(C)NC(C)=C3[N+](=O)[O-])CC2)ncn1 (stereo not drawn) [Example 11]	360 nM	43000 nM	68%	5300 nM
COc1ccccc1N1CCN(CCCCOC(=O)C2=C(C)NC(C)=C([N+](=O)[O-])C2c2cccc3nonc23)CC1 (stereo not drawn) [Example 51, 4-(4-Benzofurazanyl)-1,4-dihydro-2,6-dimethyl-5-nitro-3-pyridinecarboxylicacid, {4-[4-(2-methoxyphenyl)-1-piperazinyl]butyl} ester]	110 nM	11000 nM	175%	120 nM
COc1ccccc1N1CCN(CCCCOC(=O)C2=C(C)NC(C)=C([N+](=O)[O-])C2c2cccnc2)CC1 (stereo not drawn) [Example 52]	3900 nM	–	35%	52 nM
CC1=C(C(=O)OCCCCN2CCN(c3ncccn3)CC2)C(c2cccnc2)C([N+](=O)[O-])=C(C)N1 (stereo not drawn) [Example 53, 1,4-Dihydro-2,6-dimethyl-5-nitro-4-(3-pyridinyl)-3-pyridinecarboxylic acid: {4-[4-(2-pyrimidinyl)-1-piperazinyl]butyl} ester]	4400 nM	25000 nM	189%	400 nM
CC1=C(C(=O)OCCCCN2CCN(c3ncccn3)CC2)C(c2cccc3nonc23)C([N+](=O)[O-])=C(C)N1 (stereo not drawn) [Example 54]	290 nM	> 100000 nM	21%	820 nM
COc1ccccc1N1CCN(CCOC(=O)C2=C(C)NC(C)=C([N+](=O)[O-])C2c2ccoc2)CC1 (stereo not drawn) [Example 55, 4-(3-Furanyl)-1,4-dihydro-2,6-dimethyl-5-nitro-3-pyridinecarboxylic acid, {2-[4-(2-methoxyphenyl)-1-piperazinyl]ethyl} ester]	5100 nM	1000 nM	169%	100 nM
CC1=C(C(=O)OCCN2CCN(c3ncccn3)CC2)C(c2ccoc2)C([N+](=O)[O-])=C(C)N1 (stereo not drawn) [Example 56, 4-(3-Furanyl)-1,4-dihydro-2,6-dimethyl-5-nitro-3-pyridinecarboxylic acid, {2-[4-(2-pyrimidinyl)-1-piperazinyl]ethyl} ester]	4300 nM	430 nM	171%	5200 nM
COc1ccccc1N1CCN(CCCCOC(=O)C2=C(C)NC(C)=C([N+](=O)[O-])C2c2cccn2C)CC1 (stereo not drawn) [Example 57, 1,4-Dihydro-2,6-dimethyl-4-(1-methyl-1H-pyrrol-2-yl)-5-nitro-3-pyridinecarboxylic acid, {4-[4-(2-methoxyphenyl)1-piperazinyl]butyl} ester]	1300 nM	2300 nM	110%	33 nM
CC1=C(C(=O)OCCCCN2CCN(c3ncccn3)CC2)C(c2cccn2C)C([N+](=O)[O-])=C(C)N1 (stereo not drawn) [Example 58, 1,4-Dihydro-2,6-dimethyl-4-(1-methyl-1H-pyrrol-2-yl)-5-nitro-3-pyridinecarboxylic acid, {4-[4-(2-pyrimidinyl)-1-piperazinyl]butyl} ester]	1800 nM	840 nM	195%	750 nM
COc1ccccc1N1CCN(CCOC(=O)C2=C(C)NC(C)=C([N+](=O)[O-])C2c2ccco2)CC1 (stereo not drawn) [Example 59]	1500 nM	2700 nM	98%	100 nM
CC1=C(C(=O)OCCN2CCN(c3ncccn3)CC2)C(c2ccco2)C([N+](=O)[O-])=C(C)N1 (stereo not drawn) [Example 60]	2000 nM	1600 nM	140%	5900 nM
COc1ccccc1N1CCN(CCOC(=O)C2=C(C)NC(C)=C([N+](=O)[O-])C2c2cccnc2)CC1 (stereo not drawn) [Example 61]	1300 nM	1500 nM	164%	25 nM
CC1=C(C(=O)OCCN2CCN(c3ncccn3)CC2)C(c2cccnc2)C([N+](=O)[O-])=C(C)N1 (stereo not drawn) [Example 62]	3700 nM	> 100000 nM	48%	> 1000 nM
COc1ccccc1N1CCN(CCCCOC(=O)C2=C(C)NC(C)=C([N+](=O)[O-])C2c2cccs2)CC1 (stereo not drawn) [Example 63]	2200 nM	12000 nM	75%	60 nM
CC1=C(C(=O)OCCCCN2CCN(c3ncccn3)CC2)C(c2cccs2)C([N+](=O)[O-])=C(C)N1 (stereo not drawn) [Example 64]	1200 nM	3400 nM	76%	1200 nM
COc1ccccc1N1CCN(CCOC(=O)C2=C(C)NC(C)=C([N+](=O)[O-])C2c2ccsc2)CC1 (stereo not drawn) [Example 65, 1,4-Dihydro-2,6-dimethyl-5-nitro-4-(3-thienyl)-3-pyridinecarboxylic acid, {2-[4-(2-methoxyphenyl)-1-piperazinyl]ethyl} ester]	860 nM	1000 nM	225%	180 nM
CC1=C(C(=O)OCCN2CCN(c3ncccn3)CC2)C(c2ccsc2)C([N+](=O)[O-])=C(C)N1 (stereo not drawn) [Example 66, 1,4-Dihydro-2,6-dimethyl-5-nitro-4-(3-thienyl)-3-pyridinecarboxylic acid, {2-[4-(2-pyrimidinyl)-1-piperazinyl]ethyl} ester]	950 nM	850 nM	210%	6000 nM
COc1ccccc1N1CCN(CCCCOC(=O)C2=C(C)NC(C)=C([N+](=O)[O-])C2c2ccoc2)CC1 (stereo not drawn) [Example 67]	3500 nM	24000 nM	86%	63 nM
CC1=C(C(=O)OCCCCN2CCN(c3ncccn3)CC2)C(c2ccoc2)C([N+](=O)[O-])=C(C)N1 (stereo not drawn) [Example 68, 4-(3-Furanyl)-1,4-dihydro-2,6-dimethyl-5-nitro-3-pyridinecarboxylic acid, {4-[4-(2-pyrimidinyl)-1-piperazinyl]butyl} ester]	2700 nM	3700 nM	147%	850 nM
